Measured values reported in patent publication US12448395B2 (BRISTOL-MYERS SQUIBB COMPANY, priority 2019, dated 2025).

Target: T1, human TLR9 (Homo sapiens, UniProt Q9NR96)
T1 sequence (Q9NR96 26-1032): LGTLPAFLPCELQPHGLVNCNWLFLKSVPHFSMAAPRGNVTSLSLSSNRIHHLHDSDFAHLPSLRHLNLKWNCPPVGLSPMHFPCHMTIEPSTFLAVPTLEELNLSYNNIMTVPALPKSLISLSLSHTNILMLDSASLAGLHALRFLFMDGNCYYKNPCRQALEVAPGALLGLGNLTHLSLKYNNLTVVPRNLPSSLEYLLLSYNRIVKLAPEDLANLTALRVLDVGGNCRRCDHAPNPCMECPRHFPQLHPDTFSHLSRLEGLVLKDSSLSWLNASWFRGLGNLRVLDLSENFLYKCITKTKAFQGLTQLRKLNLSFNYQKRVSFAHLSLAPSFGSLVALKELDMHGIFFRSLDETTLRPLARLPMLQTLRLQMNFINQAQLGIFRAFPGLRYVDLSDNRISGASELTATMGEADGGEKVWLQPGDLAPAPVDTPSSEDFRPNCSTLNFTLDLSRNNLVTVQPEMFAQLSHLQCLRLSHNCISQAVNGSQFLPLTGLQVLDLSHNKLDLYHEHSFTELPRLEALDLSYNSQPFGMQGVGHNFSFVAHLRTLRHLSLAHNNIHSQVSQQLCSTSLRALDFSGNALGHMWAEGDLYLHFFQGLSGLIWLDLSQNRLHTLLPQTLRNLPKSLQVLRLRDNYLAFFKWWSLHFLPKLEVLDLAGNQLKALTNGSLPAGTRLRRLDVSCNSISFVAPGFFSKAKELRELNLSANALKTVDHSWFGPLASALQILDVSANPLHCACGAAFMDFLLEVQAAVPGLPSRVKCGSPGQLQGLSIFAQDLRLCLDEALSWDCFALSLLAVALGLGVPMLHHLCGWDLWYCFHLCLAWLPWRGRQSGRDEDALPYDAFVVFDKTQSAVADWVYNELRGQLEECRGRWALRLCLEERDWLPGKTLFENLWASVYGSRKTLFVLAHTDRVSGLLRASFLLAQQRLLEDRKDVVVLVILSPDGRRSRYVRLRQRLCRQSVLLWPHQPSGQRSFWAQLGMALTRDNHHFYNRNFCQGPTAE
Assay: TLR9 inhibition reporter assay (HEK-Blue SEAP, ODN2006 stimulation)
Format: cell-based
Settings: HEK-Blue cells overexpressing human TLR9, ODN2006 5 nM
Experimental: TLR7/8/9 Inhibition Reporter Assays
HEK-Blue™-cells (Invivogen) overexpressing human TLR7, TLR8 or TLR9 receptors were used for screening inhibitors of these receptors using an inducible SEAP (secreted embryonic alkaline phosphatase) reporter gene under the control of the IFN-β minimal promoter fused to five NF-κB and AP-1-binding sites. Briefly, cells are seeded into Greiner 384 well plates (15000 cells per well for TLR7, 20,000 for TLR8 and 25,000 for TLR9) and then treated with test compounds in DMSO to yield a final dose response concentration range of 0.05 nM-50 μM. After a 30 minute compound pre-treatment at room temperature, the cells are then stimulated with a TLR7 ligand (gardiquimod at a final concentration of 7.5 μM), TLR8 ligand (R848 at a final concentration of 15.9 μM) or TLR9 ligand (ODN2006 at a final concentration of 5 nM) to activate NF-κB and AP-1 which induce the production of SEAP. After a 22 hour incubation at 37° C., 5% CO2, SEAP levels are determined with the addition of HEK-Blue™ Detection reagent (Invivogen), a cell culture medium that allows for detection of SEAP, according to manufacturer's specifications. The percent inhibition is determined as the % reduction in the HEK-Blue signal present in wells treated with agonist plus DMSO alone compared to wells treated with a known inhibitor.

IC50, > 50 µM:
Cc1c(-c2[nH]c3sc(N4CCN(CCS(C)(=O)=O)C[C@H]4C)nc3c2C(C)C)cn2ncnc2c1C [Example 314, (R)-5-(7,8-dimethyl-[1,2,4]triazolo[1,5-a]pyridin-6-yl)-6-isopropyl-2-(2-methyl-4-(2-(methylsulfonyl)ethyl)piperazin-1-yl)-4H-pyrrolo[3,2-d]thiazole]
CNC(=O)CN1CCN(c2nc3c(C(C)C)c(-c4cn5ncnc5c(C)c4C)[nH]c3s2)[C@H](C)C1 [Example 315, (R)-2-(4-(5-(7,8-dimethyl-[1,2,4]triazolo[1,5-a]pyridin-6-yl)-6-isopropyl-4H-pyrrolo[3,2-d]thiazol-2-yl)-3-methylpiperazin-1-yl)-N-methylacetamide]
Cc1c(-c2[nH]c3sc(N4CCN(C5COC5)C[C@H]4C)nc3c2C(C)C)cn2ncnc2c1C [Example 316, (R)-5-(7,8-dimethyl-[1,2,4]triazolo[1,5-a]pyridin-6-yl)-6-isopropyl-2-(2-methyl-4-(oxetan-3-yl)piperazin-1-yl)-4H-pyrrolo[3,2-d]thiazole]
Cc1c(-c2[nH]c3sc(N4C[C@@H](C)N(CC(=O)N(C)C)C[C@@H]4C)nc3c2C(C)C)cn2ncnc2c1C [Example 335, 2-((2R,5S)-4-(5-(7,8-dimethyl-[1,2,4]triazolo[1,5-a]pyridin-6-yl)-6-isopropyl-4H-pyrrolo[3,2-d]thiazol-2-yl)-2,5-dimethylpiperazin-1-yl)-N,N-dimethylacetamide]
CNC(=O)CN1CCN(c2nc3c(C(C)C)c(-c4cn5ncnc5c(C)c4C)[nH]c3s2)[C@@H](C)C1 [Example 342, (S)-2-(4-(5-(7,8-dimethyl-[1,2,4]triazolo[1,5-a]pyridin-6-yl)-6-isopropyl-4H-pyrrolo[3,2-d]thiazol-2-yl)-3-methylpiperazin-1-yl)-N-methylacetamide]
Cc1c(-c2[nH]c3sc(N4CCN(CC(=O)N(C)C)C[C@@H]4C)nc3c2C(C)C)cn2ncnc2c1C [Example 343, (S)-2-(4-(5-(7,8-dimethyl-[1,2,4]triazolo[1,5-a]pyridin-6-yl)-6-isopropyl-4H-pyrrolo[3,2-d]thiazol-2-yl)-3-methylpiperazin-1-yl)-N,N-dimethylacetamide]
Cc1c(-c2[nH]c3sc(N4CCN(CCS(C)(=O)=O)C[C@@H]4C)nc3c2C(C)C)cn2ncnc2c1C [Example 344, (S)-5-(7,8-dimethyl-[1,2,4]triazolo[1,5-a]pyridin-6-yl)-6-isopropyl-2-(2-methyl-4-(2-(methylsulfonyl)ethyl)piperazin-1-yl)-4H-pyrrolo[3,2-d]thiazole]
Cc1c(-c2[nH]c3sc(N4CCN(CC(C)(C)O)C[C@@H]4C)nc3c2C(C)C)cn2ncnc2c1C [Example 345, (S)-1-(4-(5-(7,8-dimethyl-[1,2,4]triazolo[1,5-a]pyridin-6-yl)-6-isopropyl-4H-pyrrolo[3,2-d]thiazol-2-yl)-3-methylpiperazin-1-yl)-2-methylpropan-2-ol]
Cc1c(-c2[nH]c3sc(N4CCN(C(=O)C5CCS(=O)(=O)CC5)C[C@@H]4C)nc3c2C(C)C)cn2ncnc2c1C [Example 347, (S)-(4-(5-(7,8-dimethyl-[1,2,4]triazolo[1,5-a]pyridin-6-yl)-6-isopropyl-4H-pyrrolo[3,2-d]thiazol-2-yl)-3-methylpiperazin-1-yl)(1,1-dioxidotetrahydro-2H-thiopyran-4-yl)methanone]
Cc1c(-c2[nH]c3sc(N4CCN(C5COC5)C[C@@H]4C)nc3c2C(C)C)cn2ncnc2c1C [Example 348, (S)-5-(7,8-dimethyl-[1,2,4]triazolo[1,5-a]pyridin-6-yl)-6-isopropyl-2-(2-methyl-4-(oxetan-3-yl)piperazin-1-yl)-4H-pyrrolo[3,2-d]thiazole]
Cc1c(-c2[nH]c3sc(N4CCN(C5CCC5)C[C@@H]4C)nc3c2C(C)C)cn2ncnc2c1C [Example 349]
Cc1cc(-c2[nH]c3sc(N4CCN(C(=O)CN(C)C)C[C@H]4C)nc3c2C(C)C)cn2ncnc12 [Example 360, (R)-2-(dimethylamino)-1-(4-(6-isopropyl-5-(8-methyl-[1,2,4]triazolo[1,5-a]pyridin-6-yl)-4H-pyrrolo[3,2-d]thiazol-2-yl)-3-methylpiperazin-1-yl)ethan-1-one]
Cc1c(-c2[nH]c3sc(C(=O)NCCCN4CCCC4=O)nc3c2C(C)C)cn2ncnc2c1C [Example 371, 5-(7,8-dimethyl-[1,2,4]triazolo[1,5-a]pyridin-6-yl)-6-isopropyl-N-(3-(2-oxopyrrolidin-1-yl)propyl)-4H-pyrrolo[3,2-d]thiazole-2-carboxamide]
Cc1c(-c2[nH]c3sc(C(=O)N4CCCC4)nc3c2C(C)C)cn2ncnc2c1C [Example 377, (5-(7,8-dimethyl-[1,2,4]triazolo[1,5-a]pyridin-6-yl)-6-isopropyl-4H-pyrrolo[3,2-d]thiazol-2-yl)(pyrrolidin-1-yl)methanone]
Cc1c(-c2[nH]c3sc(C(=O)N4CCNC(=O)C4)nc3c2C(C)C)cn2ncnc2c1C [Example 378, 4-(5-(7,8-dimethyl-[1,2,4]triazolo[1,5-a]pyridin-6-yl)-6-isopropyl-4H-pyrrolo[3,2-d]thiazole-2-carbonyl)piperazin-2-one]
Cc1c(-c2[nH]c3sc(C(=O)N4CCN(S(C)(=O)=O)CC4)nc3c2C(C)C)cn2ncnc2c1C [Example 384, (5-(7,8-dimethyl-[1,2,4]triazolo[1,5-a]pyridin-6-yl)-6-isopropyl-4H-pyrrolo[3,2-d]thiazol-2-yl)(4-(methylsulfonyl)piperazin-1-yl) methanone]
Cc1c(-c2[nH]c3sc(C(N)=O)nc3c2C(C)C)cn2ncnc2c1C [Example 385, 5-(7,8-dimethyl-[1,2,4]triazolo[1,5-a]pyridin-6-yl)-6-isopropyl-4H-pyrrolo[3,2-d]thiazole-2-carboxamide]
COc1cc(-c2[nH]c3sc(C(=O)NCC(F)(F)F)nc3c2C(C)C)cn2ncnc12 [Example 390, 6-isopropyl-5-(8-methoxy-[1,2,4]triazolo[1,5-a]pyridin-6-yl)-N-(2,2,2-trifluoroethyl)-4H-pyrrolo[3,2-d]thiazole-2-carboxamide]
Cc1cc(-c2[nH]c3sc(C(N)=O)nc3c2C(C)C)cn2ncnc12 [Example 391, 6-isopropyl-5-(8-methyl-[1,2,4]triazolo[1,5-a]pyridin-6-yl)-4H-pyrrolo[3,2-d]thiazole-2-carboxamide]
Cc1cc(-c2[nH]c3sc(C(=O)N4CCNC(=O)C4)nc3c2C(C)C)cn2ncnc12 [Example 392, 4-(6-isopropyl-5-(8-methyl-[1,2,4]triazolo[1,5-a]pyridin-6-yl)-4H-pyrrolo[3,2-d]thiazole-2-carbonyl)piperazin-2-one]
Cc1cc(-c2[nH]c3sc(C(=O)N4CCCC4)nc3c2C(C)C)cn2ncnc12 [Example 393, (6-isopropyl-5-(8-methyl-[1,2,4]triazolo[1,5-a]pyridin-6-yl)-4H-pyrrolo[3,2-d]thiazol-2-yl)(pyrrolidin-1-yl) methanone]
Cc1cc(-c2[nH]c3sc(C(=O)N4CCCOCC4)nc3c2C(C)C)cn2ncnc12 [Example 394, (6-isopropyl-5-(8-methyl-[1,2,4]triazolo[1,5-a]pyridin-6-yl)-4H-pyrrolo[3,2-d]thiazol-2-yl)(1,4-oxazepan-4-yl)methanone]
